For assay [1], the target named is T1, SIRT2 (Homo sapiens, UniProt Q8IXJ6).
T1 sequence (Q8IXJ6 1-389): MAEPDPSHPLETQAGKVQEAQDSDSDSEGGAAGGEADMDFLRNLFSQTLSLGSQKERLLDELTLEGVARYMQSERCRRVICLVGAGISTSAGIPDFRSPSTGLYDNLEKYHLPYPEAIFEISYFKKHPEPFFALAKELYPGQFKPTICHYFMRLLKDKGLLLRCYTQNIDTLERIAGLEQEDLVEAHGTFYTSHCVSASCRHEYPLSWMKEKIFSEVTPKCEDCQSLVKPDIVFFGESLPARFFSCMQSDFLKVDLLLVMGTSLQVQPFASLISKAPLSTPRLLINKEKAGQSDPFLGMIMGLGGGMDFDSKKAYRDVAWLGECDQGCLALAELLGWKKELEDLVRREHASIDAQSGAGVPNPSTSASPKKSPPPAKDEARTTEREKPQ
The assay can be described thus: Fluorescence thermal shift assay of SIRT2.
Method: The thermal stability of SIRT2 was determined in the presence of 10 μM and 30 μM inhibitor and in the presence and absence of 2.5 mM co-factor NAD^+.
All melting temperature shifts measured were referenced to the melting temperature of SIRT2 without inhibitor, also in the presence and absence of the co-factor.
Fluorescence thermal shift assays were performed in white 96-well plates (Hard-Shell PCR Plates, BioRad, USA) with a total volume of 20 μL per well and a final DMSO concentration of 5% (v/v), following a published protocol.[19,21] […] The compounds were prepared as 10 mM stock solutions in DMSO and diluted in the assay such that a final DMSO concentration of 5% (v/v) was achieved. If necessary, NAD^+ was added to a final concentration of 2.5 mM. […] Melting temperatures were determined using GraphPad Prism, following a published procedure.[52]

The target of assay [2] is T2, human SIRT3 (Homo sapiens, UniProt Q9NTG7).
T2 construct: purchased Reaction Biology Corporation (Malvern, USA), contract assay
T2 sequence (Q9NTG7 1-399): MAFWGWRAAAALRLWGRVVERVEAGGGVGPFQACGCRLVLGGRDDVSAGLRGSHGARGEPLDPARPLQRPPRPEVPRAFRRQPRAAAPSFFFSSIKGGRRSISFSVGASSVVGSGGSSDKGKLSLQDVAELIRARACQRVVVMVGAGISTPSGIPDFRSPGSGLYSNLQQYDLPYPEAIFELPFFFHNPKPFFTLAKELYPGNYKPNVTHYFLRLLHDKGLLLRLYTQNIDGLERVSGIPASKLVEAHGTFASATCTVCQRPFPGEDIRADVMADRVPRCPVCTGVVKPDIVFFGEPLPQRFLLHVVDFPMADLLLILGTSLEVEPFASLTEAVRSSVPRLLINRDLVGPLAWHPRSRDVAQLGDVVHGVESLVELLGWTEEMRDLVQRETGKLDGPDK
In words: Fluorescence-based sirtuin subtype selectivity assay, SIRT3, single dose 50 μM. In kind it is biochemical. The settings on record: 50 μM compound; mean, n = 2. Here is the method: (§1) IC50 values against SIRT2 are given as mean with standard deviations (n = 3). Inhibition percentages at 50 μM for SIRT1, 3 and 5 are given as mean without standard deviations (n = 2)
(§2) The determination of subtype selectivity against SIRT1, 3 and 5 was performed by measuring the residual enzyme activity after treatment with the corresponding inhibitor at a fixed concentration of 50 μM and subsequent calculation of the percentage inhibition.
(§3) The determination of inhibitory activity on the corresponding sirtuin enzymes was carried out based on a fluorescence-based assay commissioned by Reaction Biology Corporation (Malvern, USA) following an internal experimental protocol. Test substances were prepared in DMSO, delivered into the respective enzyme mixture (prepared with reaction buffer: Tris-HCl, pH = 8) and incubated for 10 minutes at 30 °C. Subsequently the substrate mixture (NAD^+ and a 7-amino-4-methylcoumarin-based fluorogenic peptide substrate) was added to initiate the deacetylation reaction. After 2 hours incubation at 30 °C, 2 mM nicotinamide (universal sirtuin inhibitor, to stop the reaction) and protease-based developer (to generate fluorescence by the cleavage of 7-amino-4-methylcoumarin) was added. At 30 °C 1 hour later, the respective fluorescence was measured (extinction/emission = 360 nm/460 nm). The inhibitory effect of the test compounds is indirectly proportional to the amount of converted fluorescent substrate standardized as 100% activity of the control without inhibitor. The test substances were tested in 10-dose IC50 triplicate mode, with 3-fold serial dilution starting at 50 μM final reaction concentration and if necessary, starting at 100 μM. For each serially diluted replicate of the triplicate, an IC50 value was determined by sigmoidal curve fitting, resulting in three IC50 values, from which the mean and corresponding standard deviation were subsequently calculated. Data processing was performed based on Prism 8.0.2 software (GraphPad Software, Boston, USA). Subtype selectivity on SIRT1, SIRT3 and SIRT5 was evaluated in a single dose duplicate mode at 50 μM final test compound concentration according to previous outlined internal protocol of Reaction Biology Corporation by determining the enzyme activity of the respective sirtuins in % (no inhibitor control as 100% activity).

Assay [3] deals with T3, NanoLuc-SIRT2 fusion construct (Homo sapiens, UniProt Q8IXJ6).
T3 construct: HEK293T cells expressing the NanoLuc-tagged SIRT2(50-356) fusion protein were used; expressed in transfected cells; transient transfection for SH10
T3 sequence (Q8IXJ6 50-356): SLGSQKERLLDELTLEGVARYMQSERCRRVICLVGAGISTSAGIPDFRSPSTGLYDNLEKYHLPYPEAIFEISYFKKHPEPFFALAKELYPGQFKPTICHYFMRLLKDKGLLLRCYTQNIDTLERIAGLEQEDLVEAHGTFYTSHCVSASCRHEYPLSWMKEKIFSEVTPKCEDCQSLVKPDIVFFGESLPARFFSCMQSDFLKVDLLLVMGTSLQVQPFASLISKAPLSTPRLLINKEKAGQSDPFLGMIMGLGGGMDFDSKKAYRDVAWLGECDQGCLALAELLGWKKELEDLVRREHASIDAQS
In words: NanoBRET cellular target engagement assay in HEK293T cells. The settings on record: stable HEK293T cell line expressing NanoLuc-SIRT2; 2 μM tracer; 2 hours at 37 °C; read-out: NanoBRET EC50 (cellular SIRT2 target engagement). In kind it is cell-based. (In general: Bioluminescence resonance energy transfer reports proximity on the nanometre scale.)
Method: For the assay, cells were trypsinized, resuspended in Opti-MEM® reduced serum medium, and adjusted to a concentration of 2 × 10^5 cells per mL. […] Serially diluted inhibitor and tracer were added to the cell suspension, and 100 μL were seeded into 96-well white, sterile, nonbinding surface plates. […] For BRET measurements, NanoBRET NanoGlo Substrate (Promega cat. #N1571) was added to the wells according to the manufacturer's protocol. […] The BRET ratio was calculated as the ratio of acceptor to donor signal, and data were normalized to vehicle-treated controls. Apparent intracellular binding affinities (EC50 values) were determined by fitting dose–response curves using nonlinear regression analysis in GraphPad Prism.

For assay [4], the target named is T4, human SIRT1 (Homo sapiens, UniProt Q96EB6).
T4 construct: purchased Reaction Biology Corporation (Malvern, USA), contract assay
T4 sequence (Q96EB6 1-747): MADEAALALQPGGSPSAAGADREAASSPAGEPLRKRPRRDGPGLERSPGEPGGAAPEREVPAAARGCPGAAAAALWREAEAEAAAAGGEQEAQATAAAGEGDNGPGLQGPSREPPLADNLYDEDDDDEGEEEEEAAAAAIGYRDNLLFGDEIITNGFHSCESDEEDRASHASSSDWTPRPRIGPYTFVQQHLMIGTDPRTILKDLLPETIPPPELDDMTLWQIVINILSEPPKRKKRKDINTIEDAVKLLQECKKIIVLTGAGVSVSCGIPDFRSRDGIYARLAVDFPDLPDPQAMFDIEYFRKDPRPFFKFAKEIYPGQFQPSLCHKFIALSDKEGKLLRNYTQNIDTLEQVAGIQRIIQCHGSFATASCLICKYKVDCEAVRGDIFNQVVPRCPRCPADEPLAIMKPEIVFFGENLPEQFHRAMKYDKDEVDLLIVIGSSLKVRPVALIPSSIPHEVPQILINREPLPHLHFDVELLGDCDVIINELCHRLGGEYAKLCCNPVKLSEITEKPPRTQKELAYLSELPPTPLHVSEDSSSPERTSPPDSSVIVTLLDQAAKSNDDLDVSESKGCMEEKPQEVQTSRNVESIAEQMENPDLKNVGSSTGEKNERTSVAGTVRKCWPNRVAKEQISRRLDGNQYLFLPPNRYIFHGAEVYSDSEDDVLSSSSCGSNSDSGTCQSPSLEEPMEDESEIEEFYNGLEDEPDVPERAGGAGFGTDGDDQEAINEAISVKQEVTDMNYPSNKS
In words: Fluorescence-based sirtuin subtype selectivity assay, SIRT1, single dose 50 μM. In kind it is biochemical. The settings on record: 50 μM compound; mean, n = 2. Here is the method:
as §1, §2, §3

In general, inhibition refers to the share of the control response that was lost under treatment. One may read the EC50 as the concentration needed to bring the measured effect to its halfway point.

The structures appear in SMILES notation.

Consider `Cc1cc(C)nc(SCC(=O)Nc2cccc(COc3ccc(NC(=O)c4cnn(C)c4)c(Cl)c3)c2)n1` [Compound 29, N-(2-Chloro-4-((3-(2-((4,6-dimethylpyrimidin-2-yl)thio)acetamido)benzyl)oxy)phenyl)-1-methyl-1H-pyrazole-4-carboxamide], for which the “NAD+ dependency of inhibitor-induced SIRT2 melting temperature increase” value in assay [1] (presence and absence of 2.5 mM NAD+) was “increases the melting temperature of SIRT2 independently of NAD^+”. In addition, in assay [1] (read-out: ΔT, increase in the melting temperature of SIRT2), the ΔTm at 30 µM amounted to 6.5 °C. Besides, the inhibition at 50 µM in assay [2] was 26%; in assay [4] it was 12%. Further, the EC50 in assay [3] stood at 15 nM.

Values taken from article PMC12412615, “Tailored SirReal-type inhibitors enhance SIRT2 inhibition through ligand stabilization and disruption of NAD^+ co-factor binding” (RSC Medicinal Chemistry, 2025).
